Experimental data taken from PubChem BioAssay (NCI).
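Five compound concentrations were applied to cells in 96-well plates for 48 hours; endpoints were derived by simple linear interpolation of the resulting dose-response curve. GI50: concentration for 50% inhibition of growth. Definition used: TGI = concentration required for complete inhibition of growth.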

What was measured:
Assay in all cases: NCI tumour cell line growth inhibition, 48 h
[1] = test system: 786-0 renal
[2] = test system: A549 NSCLC
[3] = test system: ACHN renal
[4] = test system: HCT-15 colon
[5] = test system: HL-60(TB) leukemia
[6] = test system: K-562 leukemia
[7] = test system: MOLT-4 leukemia
[8] = test system: NCI-H226 lung
[9] = test system: NCI-H23 lung
[10] = test system: SF-268 CNS
[11] = test system: SF-295 CNS
[12] = test system: SF-539 CNS
[13] = test system: SK-MEL-5 melanoma
[14] = test system: SN12C renal
[15] = test system: T-47D breast
[16] = test system: TK-10 renal
[17] = test system: UACC-257 melanoma
[18] = test system: UACC-62 melanoma
[19] = test system: UO-31 renal

SMILES | TGI [1] [µM] | TGI [2] [µM] | TGI [3] [µM] | TGI [4] [µM] | TGI [5] [µM] | TGI [6] [µM] | TGI [7] [µM] | TGI [8] [µM] | TGI [9] [µM] | TGI [10] [µM] | TGI [11] [µM] | TGI [12] [µM] | TGI [13] [µM] | TGI [14] [µM] | TGI [15] [µM] | TGI [16] [µM] | TGI [17] [µM] | TGI [18] [µM] | TGI [19] [µM] | GI50 [16] [µM]
Cc1oc2nc(N(C)C)nc(Cl)c2c1C | > 100 | > 100 | > 100 | > 100 | > 100 | > 100 | > 100 | > 100 | > 100 | > 100 | > 100 | > 100 | > 100 | > 100 | > 100 | > 100 | > 100 | > 100 | > 100 | –
CCCN(CCCCC(NC(C)=O)C(=O)NCc1ccccc1)C(=O)N(CCCl)N=O (stereo not given) | > 89.4 | > 100 | > 100 | > 100 | > 86 | > 100 | > 100 | > 100 | 98.5 | > 100 | > 100 | 41.1 | > 100 | > 100 | > 100 | > 100 | > 100 | > 100 | > 100 | –
Brc1ccc2c(-c3nc(-c4c[nH]c5ccc(Br)cc45)cs3)c[nH]c2c1 | 6.33 | 17 | > 30 | 13.1 | 23.2 | > 22.3 | 8.42 | 5.37 | 13.3 | 17.7 | 17.8 | 18.1 | 12.3 | 16.9 | 31.9 | 17.9 | 23.6 | > 48.4 | 13.7 | –
CCOC(=O)/C(O)=C(/C=NC(=S)c1ccncc1)C(=O)OCC | > 100 | > 100 | > 100 | > 100 | > 100 | > 100 | > 100 | > 100 | > 100 | > 100 | > 100 | > 100 | > 100 | > 100 | > 100 | > 100 | > 100 | > 100 | > 100 | > 100
O=[N+]([O-])C(C(Cl)=C(Cl)Cl)=C(N1CCOCC1)N1CCOCC1 | > 100 | > 100 | > 100 | > 100 | > 100 | > 100 | > 100 | > 100 | > 100 | > 100 | > 100 | > 100 | > 100 | > 100 | > 100 | > 100 | > 100 | > 100 | > 100 | –
N#Cc1nc(COCCOCc2ccccc2)oc1N | > 100 | > 100 | > 100 | > 100 | > 100 | > 100 | > 100 | > 100 | > 100 | > 100 | > 100 | > 100 | > 100 | > 100 | > 100 | > 100 | > 100 | > 100 | > 100 | –
CC1=C2C3=C(C)C(=O)C(C)(C)CC[C@@]3(C)[C@]2(C)CCC(C)(C)C1=O | > 100 | > 100 | > 100 | > 100 | > 100 | > 100 | > 100 | > 100 | > 100 | > 100 | > 100 | > 100 | > 100 | > 100 | > 100 | > 100 | > 100 | > 100 | > 100 | –
O=C1NNC(=O)C2C3c4ccccc4C(c4ccccc43)C12 (stereo not given) | > 100 | > 100 | > 100 | > 100 | > 100 | > 100 | > 100 | > 100 | > 100 | > 100 | > 100 | > 100 | > 100 | > 100 | > 100 | > 100 | > 100 | > 100 | > 100 | –
Cc1[nH]c(=O)[nH]c(=S)c1C(=O)NC(C)(CO)CO | > 100 | > 100 | > 100 | > 100 | > 100 | > 100 | > 100 | > 100 | > 100 | > 100 | > 100 | > 100 | > 100 | > 100 | > 100 | > 100 | > 100 | > 100 | > 100 | –
CCOC(=O)C(=C(SC)SC)c1nn2c(=O)cc(C)nc2s1 | 36.2 | > 100 | 33.7 | 31.8 | 37.6 | 44.1 | 44.1 | 44.6 | 65.9 | 54.5 | > 100 | 32.7 | 36.9 | > 100 | 34.1 | 44.9 | 45.2 | 57.3 | 34 | –
C=CCN1C(=O)/C(=C/c2ccccc2)NC1=S | > 100 | > 100 | > 100 | > 100 | > 100 | > 100 | > 100 | > 100 | > 100 | > 100 | > 100 | > 100 | > 100 | > 100 | > 100 | > 100 | > 100 | > 100 | > 100 | –
O=C(CCc1ccc(O)cc1)NCCc1ccc(O)cc1 | > 100 | > 100 | > 100 | > 100 | > 100 | > 100 | > 100 | > 100 | > 100 | > 100 | > 100 | > 100 | > 100 | > 100 | > 100 | > 100 | > 100 | > 100 | > 100 | –
CC/C(=N/O)c1ccc(Br)s1 | > 100 | > 100 | > 100 | > 100 | > 100 | > 100 | > 100 | > 100 | > 100 | > 100 | > 100 | > 100 | > 100 | > 100 | > 100 | > 100 | > 100 | > 100 | > 100 | –
C=C1CC[C@@]2(OC1)OC1C[C@H]3[C@@H]4CC=C5C[C@@H](O)CC(OC6OCC(OC(=O)[C@@H](O)[C@@H](C)CC)C(OC(C)=O)C6OC6OC(C)C(O)C(O)C6O)[C@]5(C)[C@H]4CC[C@]3(C)C1[C@@H]2C (stereo not given in full) | 3.27 | 4.73 | 5.93 | 3.67 | 4.87 | 4.71 | 3.54 | 6.01 | 6.57 | 4.12 | 3.27 | 5.21 | 3.59 | 4 | > 10 | 3.87 | 5.48 | 3.37 | 4.56 | –
O=c1[nH]nc(-c2cccc(Br)c2)[nH]1 | > 100 | > 100 | > 100 | > 100 | > 100 | > 100 | > 100 | > 100 | > 100 | > 100 | > 100 | > 100 | > 100 | > 100 | > 100 | > 100 | > 100 | > 100 | > 100 | –
C=C(C)[C@@H](C(=O)OC)N1C(=O)c2ccccc2C1=O | > 100 | > 100 | > 100 | > 100 | > 100 | > 100 | > 100 | > 100 | > 100 | > 100 | > 100 | > 100 | > 100 | > 100 | > 100 | > 100 | > 100 | > 100 | > 100 | –
